Results published in ChEMBL document CHEMBL1201862, “PubChem BioAssay data set” (2004).
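Each compound was tested at five concentrations against cells in 96-well plates for 48 hours. GI50: concentration for 50% inhibition of growth.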 Activity calls are given as the source filed them. Cut-off read from the data, not from the text of the source: active = GI50 up to about 1.1 µM and inactive = higher.

Columns and labels:
Experiment in all cases: growth of human tumour cells (NCI), 48 h
[1] = system: EKVX
[2] = system: HOP-62
[3] = system: KM12
[4] = system: MDA-MB-435
[5] = system: MOLT-4
[6] = system: NCI-H226
[7] = system: NCI-H23
[8] = system: NCI-H460
[9] = system: NCI-H522
[10] = system: OVCAR-3
[11] = system: OVCAR-4
[12] = system: OVCAR-5
[13] = system: PC-3
[14] = system: RXF 393
[15] = system: SF-295
[16] = system: SK-MEL-5
[17] = system: SNB-75
[18] = system: SW-620
[19] = system: TK-10
[20] = system: UACC-257

Measured: GI50

Cc1ncc(COP(=O)(O)O)c(/C=C2\SC(=S)NC2=O)c1O
inactive: [1] > 100 µM | [2] > 100 µM | [3] > 100 µM | [4] > 100 µM | [5] > 100 µM | [6] > 100 µM | [7] > 100 µM | [8] > 100 µM | [9] > 100 µM | [10] > 100 µM | [11] > 100 µM | [12] > 100 µM | [13] > 100 µM | [14] > 100 µM | [15] > 22.3 µM | [16] > 100 µM | [17] > 100 µM | [18] > 100 µM | [19] > 100 µM | [20] > 100 µM

CCOC(=O)c1sc2nc(SC)nc3c2c1N=CN3c1ccc(Br)cc1
inactive: [1] > 100 µM | [2] 21.7 µM | [3] > 100 µM | [4] > 100 µM | [5] > 100 µM | [6] > 100 µM | [7] > 100 µM | [8] > 100 µM | [9] > 100 µM | [10] 24.8 µM | [11] > 100 µM | [12] > 100 µM | [13] > 100 µM | [14] 25.4 µM | [15] > 100 µM | [16] > 100 µM | [17] 38.2 µM | [18] > 100 µM | [19] > 100 µM | [20] > 100 µM

CN(CCCNC(=O)c1c2ccc3ccccc3c2nn1C)CCCNC(=O)c1c2ccc3ccccc3c2nn1C
inactive: [1] 9.14 µM | [2] 14.8 µM | [3] 8.13 µM | [4] 2.29 µM | [5] 4.85 µM | [6] 15.1 µM | [7] 15.1 µM | [8] 4.52 µM | [9] 7.35 µM | [10] 16 µM | [11] 11.7 µM | [12] 11.5 µM | [13] 12.4 µM | [14] 5.94 µM | [15] 4.29 µM | [16] 2.23 µM | [17] 8.2 µM | [18] 7.74 µM | [19] 2.67 µM | [20] 1.9 µM

CCOC(=O)c1nnsc1NN=C(C)C
inactive: [1] > 100 µM | [2] > 100 µM | [3] > 100 µM | [4] > 100 µM | [5] > 100 µM | [6] > 100 µM | [7] > 100 µM | [8] > 100 µM | [9] > 100 µM | [10] > 100 µM | [11] > 100 µM | [12] > 100 µM | [13] > 100 µM | [14] > 100 µM | [15] > 100 µM | [16] > 100 µM | [17] > 100 µM | [18] > 100 µM | [19] > 100 µM | [20] > 100 µM

CC(=O)c1c(C)cc2cccc(OC3OC(CO)C(O)C(O)C3O)c2c1O.CC1OC(O)C(O)C(O)C1O (stereo not given)
inactive: [1] > 100 µM | [2] > 100 µM | [3] > 100 µM | [4] > 100 µM | [5] > 100 µM | [6] > 100 µM | [7] > 100 µM | [8] > 100 µM | [9] > 100 µM | [10] > 100 µM | [11] > 100 µM | [12] > 100 µM | [13] > 100 µM | [14] > 100 µM | [15] > 100 µM | [16] > 100 µM | [17] > 100 µM | [18] > 100 µM | [19] > 100 µM | [20] > 100 µM
